Results reported in article PMC3892729 (ACS Medicinal Chemistry Letters, 2013).
Entries after “also recorded” stand apart in the source; their conditions may differ.

Assays:
human β2 adrenoceptor [1] = molecular target: T1, human β2 adrenoceptor (Homo sapiens, UniProt P07550); test: SPR binding to captured β2 adrenoceptor, MNG detergent; details: for loss in activity / reduction of affinity versus parent fragment: SPR KD, MNG, I and J versus A, L versus F
human β2 adrenoceptor [2] = molecular target: T1, human β2 adrenoceptor; test: SPR binding to captured β2 adrenoceptor, DDM detergent; details: read-out: SPR ka

T1 sequence (P07550 whole entry, the tested form may be a part): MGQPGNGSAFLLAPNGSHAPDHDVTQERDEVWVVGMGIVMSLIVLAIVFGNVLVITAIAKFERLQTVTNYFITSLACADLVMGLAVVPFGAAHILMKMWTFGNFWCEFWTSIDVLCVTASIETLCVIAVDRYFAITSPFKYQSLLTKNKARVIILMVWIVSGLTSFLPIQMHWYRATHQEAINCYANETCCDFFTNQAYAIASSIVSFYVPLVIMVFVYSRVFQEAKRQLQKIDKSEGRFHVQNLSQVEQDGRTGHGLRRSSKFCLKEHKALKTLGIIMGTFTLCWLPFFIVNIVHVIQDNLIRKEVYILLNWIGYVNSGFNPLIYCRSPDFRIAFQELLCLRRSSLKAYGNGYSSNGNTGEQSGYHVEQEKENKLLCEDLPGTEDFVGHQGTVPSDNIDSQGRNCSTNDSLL

Structure (SMILES)	loss in activity / reduction of affinity versus parent fragment (human β2 adrenoceptor [1]) [fold]	further results
Cc1ccc2nc(C(F)(F)F)cc(N3CCN(C)CC3)c2c1 [I]	50	
Cc1ccc2nc(C(F)(F)F)cc(N3CCC(F)(F)CC3)c2c1 [J]	2000	
Cc1ccc2nc(C(F)(F)F)cc(N3CCOCC3)c2c1 [K]		KD (result in words) (human β2 adrenoceptor [1]; MNG detergent): ablation of activity; also recorded: no binding
c1cc(N2CCNCC2)ccn1 [L]	400	
CC(Cc1ccc(O)cc1)NCC(O)c1cc(O)cc(O)c1 (centres unmarked) [fenoterol]		kon (human β2 adrenoceptor [2]): 545000 M⁻¹ s⁻¹
